This experiment has as its target canine TRPM8 (Canis lupus familiaris, UniProt Q1A7N1). The experiment in a line: In Vitro Canine TRPM8 Functional Assay (Ca2+ fluorescence, icilin activation). Conditions: for IC50: read-out: IC50; for inhibition at 0.2 µM: read-out: % Inh @ 0.2; for inhibition at 0.5 µM: compound at 0.5 μM, read-out: % Inh @ 0.5. Type of experiment: cell-based. In outline: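 Eight-point dose-response curves in quadruplicate gave EC50 or IC50 values from a Ca2+-sensitive dye assay in HEK293 cells stably carrying canine TRPM8. Icilin, dosed near its 80% maximal level, followed a 5 min compound exposure.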

Where [1] appears, read: HEK293 cells stably expressing canine TRPM8, icilin activation, eight-point dose-response.
The mark [2] stands for this setting: compound at 0.2 μM, canine TRPM8, icilin activation.
[3] abbreviates: canine TRPM8, icilin activation.

Here are results for 23 compounds from patent US9434711B2 (Janssen Pharmaceutica, NV, priority 2007, dated 2016).

Like-named read-outs stand apart in the source and are kept apart here.

Chain of canine TRPM8 (Q1A7N1 1-1104): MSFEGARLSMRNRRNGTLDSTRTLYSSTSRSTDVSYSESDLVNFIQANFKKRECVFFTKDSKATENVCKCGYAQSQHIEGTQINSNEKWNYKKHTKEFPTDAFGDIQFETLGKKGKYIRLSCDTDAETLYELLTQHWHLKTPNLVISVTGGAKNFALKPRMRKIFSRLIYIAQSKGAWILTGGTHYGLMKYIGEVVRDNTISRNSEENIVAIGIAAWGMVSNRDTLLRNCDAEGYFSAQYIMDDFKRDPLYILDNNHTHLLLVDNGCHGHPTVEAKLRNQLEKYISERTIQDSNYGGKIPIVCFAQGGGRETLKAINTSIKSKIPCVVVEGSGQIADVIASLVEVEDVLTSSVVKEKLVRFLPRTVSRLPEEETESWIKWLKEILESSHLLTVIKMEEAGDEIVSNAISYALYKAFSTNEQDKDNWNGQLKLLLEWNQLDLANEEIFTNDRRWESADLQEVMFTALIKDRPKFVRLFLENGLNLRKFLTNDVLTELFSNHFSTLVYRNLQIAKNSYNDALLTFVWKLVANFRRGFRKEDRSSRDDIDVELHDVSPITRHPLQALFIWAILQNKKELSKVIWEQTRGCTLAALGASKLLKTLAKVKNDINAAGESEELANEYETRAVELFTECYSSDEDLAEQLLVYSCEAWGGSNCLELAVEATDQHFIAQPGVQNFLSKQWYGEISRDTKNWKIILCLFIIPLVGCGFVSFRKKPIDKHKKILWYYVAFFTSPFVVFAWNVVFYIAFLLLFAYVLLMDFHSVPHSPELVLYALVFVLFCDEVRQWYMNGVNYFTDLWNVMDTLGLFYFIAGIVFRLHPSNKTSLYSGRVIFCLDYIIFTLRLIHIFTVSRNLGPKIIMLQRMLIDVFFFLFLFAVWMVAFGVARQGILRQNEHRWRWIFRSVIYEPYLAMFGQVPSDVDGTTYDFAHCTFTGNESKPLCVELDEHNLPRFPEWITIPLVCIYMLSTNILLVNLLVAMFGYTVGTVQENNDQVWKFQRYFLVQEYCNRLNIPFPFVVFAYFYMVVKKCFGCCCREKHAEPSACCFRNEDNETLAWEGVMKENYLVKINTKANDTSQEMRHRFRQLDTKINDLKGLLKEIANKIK

By IC50 is commonly meant the concentration needed to halve the response being measured. `CC(C)c1c(N(Cc2ccc(F)c(C(F)(F)F)c2)S(=O)(=O)c2ccc(C(=O)O)cc2)sc2ccccc12` [Compound 566, N-(4-Fluoro-3-trifluoromethyl-benzyl)-N-(3-isopropyl-benzo[b]thiophen-2-yl)-4-carboxy-benzenesulfonamide]: the IC50 under setting [1] is 1.8 nM. Moreover, the inhibition at 0.2 µM under setting [2] stood at 104%.
The like results for `O=Cc1c(N(Cc2ccc(F)c(F)c2)S(=O)(=O)c2ccccc2)sc2ccccc12` [Compound 206, N-(3,4-Difluoro-benzyl)-N-(3-formyl-benzo[b]thiophen-2-yl)-benzenesulfonamide] were, in that order, 13 nM and 98%.
`O=c1[nH]c(-c2ccc(S(=O)(=O)N(CCCCC(F)(F)F)c3sc4ccccc4c3Br)cc2)no1` [Compound 583, N-(3-Bromo-benzo[b]thiophen-2-yl)-N-(5,5,5-trifluoro-pentyl)-4-(5-oxo-4,5-dihydro-[1,2,4]oxadiazol-3-yl)-benzenesulfonamide]: under setting [2], the inhibition at 0.2 µM was determined as 100%.
Same read-out and setting: next, `CS(=O)(=O)Nc1c(N(Cc2ccc(F)c(C(F)(F)F)c2)S(=O)(=O)c2ccccc2)sc2ccccc12` [Compound 508, N-(4-Fluoro-3-trifluoromethyl-benzyl)-N-(3-methanesulfonylamino-benzo[b]thiophen-2-yl)-benzenesulfonamide]: 47%.
Consider `CC(=O)c1c(N(CCCCC(F)(F)F)S(=O)(=O)c2ccc(C#N)cc2)sc2ccccc12` [Compound 773, N-(3-Acetyl-benzo[b]thiophen-2-yl)-N-(5,5,5-trifluoro-pentyl)-4-cyano-benzenesulfonamide], for which the 50% inhibitory concentration (IC50) under setting [1] is 16.7 nM. For the same compound, the inhibition at 0.2 µM under setting [2] came to 94%.
With `Cc1c(N(Cc2ccc(F)c(C(F)(F)F)c2)S(=O)(=O)CCC(C)(C)O)sc2ccccc12` [Compound 725, N-(4-Fluoro-3-trifluoromethyl-benzyl)-N-(3-methyl-benzo[b]thiophen-2-yl)-3-hydroxy-3-methyl-butane-1-sulfonamide], under setting [1], the IC50 stood at 7.8 nM. The inhibition at 0.2 µM under setting [2] stood at 102%.
Regarding `NS(=O)(=O)N(Cc1ccc(F)c(C(F)(F)F)c1)c1sc2ccccc2c1Br` [Compound 301, N-(3-Bromo-benzo[b]thiophen-2-yl)-N (4-fluoro-3-trifluoromethyl-benzyl)-sulfamide], the “% Inh @ 0.2 (μM)” value under setting [2] is on record as 63%.
As for `CN(C)Cc1c(N(Cc2ccc(F)c(C(F)(F)F)c2)S(=O)(=O)c2ccccc2)sc2ccccc12` [Compound 418, N-(3-Dimethylaminomethyl-benzo[b]thiophen-2-yl)-N-(4-fluoro-3-trifluoromethyl-benzyl)-benzenesulfonamide], under setting [1], the IC50 is 69 nM. The inhibition at 0.2 µM under setting [2] is 90%.
Consider `O=S(=O)(c1ccccc1)N(Cc1ccc(Cl)cc1)c1sc2ccccc2c1Br` [Compound 159, N-(3-Bromo-benzo[b]thiophen-2-yl)-N-(4-chloro-benzyl)-benzenesulfonamide], for which, under setting [1], the IC50 came to 13.4 nM. For the same compound, the inhibition at 0.5 µM under setting [3] came to 98%.
On the same counts, the results for `O=S(=O)(c1ccccc1)N(CCc1ccccc1)c1sc2ccccc2c1Br` [Compound 233, N-(3-Bromo-benzo[b]thiophen-2-yl)-N-(phenethyl)-benzenesulfonamide] are 22 nM and 93%.
`Cc1c(N(CCC2CC2)S(=O)(=O)c2ccc(-c3nnn[nH]3)cc2)sc2ccccc12` [Compound 570, N-(3-Methyl-benzo[b]thiophen-2-yl)-N-(cyclopropyl-ethyl)-4-(1H-tetrazol-5-yl)-benzenesulfonamide]: under setting [1], the IC50 came out at 6.6 nM. Also, the inhibition at 0.2 µM under setting [2] amounted to 101%.
Take `NS(=O)(=O)N(Cc1ccc(F)c(C(F)(F)F)c1)c1sc2ccccc2c1Cl` [Compound 302, N-(3-Chloro-benzo[b]thiophen-2-yl)-N-(4-fluoro-3-trifluoromethyl-benzyl)-sulfamide]: the inhibition at 0.2 µM under setting [2] was determined as 50%.
As to `CC#CCCN(c1sc2ccccc2c1Br)S(=O)(=O)c1ccccc1` [Compound 251, N-(3-Bromo-benzo[b]thiophen-2-yl)-N-(pent-3-ynyl)-benzenesulfonamide], the IC50 under setting [1] was found to be 38.7 nM. In addition, the inhibition at 0.2 µM under setting [2] came out at 95%.
Consider `Cc1c(N(CCCF)S(=O)(=O)c2ccc(F)c(F)c2)sc2ccccc12` [Compound 831, N-(3-Fluoro-propyl)-N-(3-methyl-benzo[b]thiophen-2-yl)-3,4-difluoro-benzenesulfonamide], for which the inhibition at 0.2 µM (0.2 μM compound, HEK293 cells stably expressing canine TRPM8, icilin activation) came out at 91%. The IC50 (HEK293 cells stably expressing canine TRPM8, icilin activation, average of two or more determinations) amounted to 50 nM.
Regarding `Cc1c(N(Cc2ccc(F)c(F)c2)S(C)(=O)=O)sc2ccccc12` [Compound 367, N-(3,4-Difluoro-benzyl)-N-(3-methyl-benzo[b]thiophen-2-yl)-methanesulfonamide], the IC50 under setting [1] was 10 nM. For the same compound, the inhibition at 0.2 µM under setting [2] was 91%.
On the same counts, the results for `Cc1c(N(CCCCC(F)(F)F)S(=O)(=O)c2cccc(C#N)c2)sc2ccccc12` [Compound 552, N-(3-Methyl-benzo[b]thiophen-2-yl)-N-(5,5,5-trifluoro-pentyl)-3-cyano-benzenesulfonamide] are 25.1 nM and 101%.
Regarding `O=C(O)c1ccc(S(=O)(=O)N(CCCC(F)(F)F)c2sc3ccccc3c2Cl)cc1` [Compound 537, N-(3-Chloro-benzo[b]thiophen-2-yl)-N-(4,4,4-trifluoro-butyl)-4-carboxy-benzenesulfonamide], the IC50 under setting [1] came to 8.2 nM. Moreover, under setting [2], the inhibition at 0.2 µM is 105%.
`O=S(=O)(N(Cc1ccc(F)c(C(F)(F)F)c1)c1cc2ccccc2s1)C(F)(F)F` [Compound 663, N-Benzo[b]thiophen-2-yl-N-(4-fluoro-3-trifluoromethyl-benzyl)-C,C,C-trifluoro-methanesulfonamide]: the inhibition at 0.2 µM under setting [2] is 17.1%.
The same measure, in the same setting: the value for `Cc1c(N(CCC2CC2)S(=O)(=O)c2ccc(N3CCNCC3)cc2)sc2ccccc12` [Compound 742, N-(3-Methyl-benzo[b]thiophen-2-yl)-N-(cyclopropyl-ethyl)-4-(piperazin-1-yl)-benzenesulfonamide] was 66%.
As for `O=S1NC(c2ccc(S(=O)(=O)N(CCC3CC3)c3cc4ccccc4s3)cc2)=NO1` (stereo not drawn) [Compound 610, N-(Benzo[b]thiophen-2-yl)-N-(cyclopropyl-ethyl)-4-(3H-[1,2,3,5]oxathiadiazole-2-oxide)-benzenesulfonamide], the “% Inh @ 0.2 (μM)” value under setting [2] is 55%.
`CCCCN(c1cc2ccccc2s1)S(=O)(=O)c1ccc(C(N)=NC(=O)CO)cc1` [Compound 472, N-(Benzo[b]thiophen-2-yl)-N-(butyl)-4-N-hydroxyacetyl-benzamidine sulfonamide]: the IC50 under setting [1] is 40 nM. Besides, the “% Inh @ 0.2 (μM)” value under setting [2] came out at 88%.
For `COC(=O)c1ccc(S(=O)(=O)N(Cc2ccc(F)c(C(F)(F)F)c2)c2sc3ccccc3c2C(C)=O)cc1` [Compound 313, N-(3-Acetyl-benzo[b]thiophen-2-yl)-N-(4-fluoro-3-trifluoromethyl-benzyl)-4-carbomethoxy-benzenesulfonamide], the IC50 under setting [1] was 21 nM. The inhibition at 0.2 µM under setting [2] came to 102%.
The like results for `O=S(=O)(c1ccc(-c2nnn[nH]2)cc1)N(CCCC(F)(F)F)c1cc2ccccc2s1` [Compound 425, N-(Benzo[b]thiophen-2-yl)-N-(4,4,4-trifluoro-butyl)-4-(1H-tetrazol-5-yl)-benzenesulfonamide] were, in that order, 79 nM and 86%.
